This is an account of results in PMC8836179, “Transport Turnover Rates for Human OCT2 and MATE1 Expressed in Chinese Hamster Ovary Cells” (International Journal of Molecular Sciences, 2022).

For one assay, the target named is T1, hMATE1 (Homo sapiens, UniProt Q96FL8).
T1 construct: expressed in transfected cells; vector pcDNA5/FRT/V5-His TOPO
T1 sequence (Q96FL8 1-570): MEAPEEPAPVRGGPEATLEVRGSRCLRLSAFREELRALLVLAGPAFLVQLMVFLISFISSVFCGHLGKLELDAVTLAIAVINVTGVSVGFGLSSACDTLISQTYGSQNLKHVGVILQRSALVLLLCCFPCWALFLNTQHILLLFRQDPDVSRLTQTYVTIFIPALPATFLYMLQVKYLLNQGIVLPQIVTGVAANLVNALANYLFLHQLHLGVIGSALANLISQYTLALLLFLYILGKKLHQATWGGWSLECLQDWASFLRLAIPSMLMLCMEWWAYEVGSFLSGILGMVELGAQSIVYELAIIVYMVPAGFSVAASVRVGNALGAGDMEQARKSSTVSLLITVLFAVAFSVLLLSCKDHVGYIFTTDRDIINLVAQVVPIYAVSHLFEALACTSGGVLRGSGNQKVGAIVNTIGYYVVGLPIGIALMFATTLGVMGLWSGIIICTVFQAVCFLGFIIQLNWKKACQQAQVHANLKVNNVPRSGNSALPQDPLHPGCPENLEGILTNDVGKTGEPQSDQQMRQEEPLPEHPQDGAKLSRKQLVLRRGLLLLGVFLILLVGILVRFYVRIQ
The assay is described as follows: MATE1-mediated substrate uptake kinetics and turnover rate in stably expressing CHO cells. The following applies: for Kt (Ktapp, apparent Michaelis constant) / Jmax (maximum rate of mediated substrate transport): CHO cells stably expressing MATE1, 60-s uptakes, outwardly-directed H+ gradient (ammonia pulse), mean ± SD; for TOR (turnover rate): Jmax divided by cell surface MATE1 abundance (21.9 ± 18.1 fmol cm^−2), CHO cells. Format: in vitro ADME. As to the method: (§1) The calculation of TOR values involved dividing the maximal rates of substrate transport (Jmax) by the number of cell-surface-expressed transporters (Table 1).
(§2) Chinese hamster ovary (CHO) cells with a single integrated Flp-In recombination site were obtained from Invitrogen (Carlsbad, CA, USA). […] Cells were passaged every 3–4 days and maintained at 37 °C in a humidified environment with 5% CO2. Continued expression of MATE1 and OCT2 in these cell lines was maintained using hygromycin (200 µg/mL; Invitrogen, Carlsbad, CA) selection pressure; continued expression of the Flp-In recombination site in wild-type (WT; non-transporter expressing) CHO cells was maintained using Zeocin (100 µg/mL; Invitrogen) selection pressure. When seeded into 96-well plates (Greiner; VWR Intl., Arlington Heights, IL, USA) for transport assays, cells were grown to confluence in antibiotic-free medium.
(§3) Cells were seeded in 96 well plates with 200 µL of cell media containing 550,000 cells/mL or 275,000 cells/mL, and experiments were performed 24 or 48 h later, respectively. To begin an experiment, media was aspirated and the wells were washed for three cycles over 12 s with 300 µL of room temperature (~23 °C) Waymouth Buffer (WB; 135 mM NaCl, 13 mM HEPES, 2.5 mM CaCl2·2H2O, 1.2 mM MgCl2, 0.8 mM MgSO4·7H2O, 5 mM KCl, and 28 mM D-glucose; pH 7.4) using an automatic microplate washer (Model 405, BioTek, Winooski, VT, USA). For studies of OCT2-mediated transport, uptake was initiated by addition of 60 µL of WB containing radiolabeled substrate and other compounds, as needed. For studies of MATE1-mediated transport, the cells (MATE1-expressing and control cells) were exposed to an ammonia pulse method that we previously used to elevate cytoplasmic [H^+] to a level (~6.0 pH; [61]) that effectively saturates the cytoplasmic face of the exchanger with H^+ [51]. Briefly, cells were preincubated for 20 min (room temp) in buffer containing 20 mM NH4Cl (the first step in establishing an outwardly-directed H^+ gradient; [60]). Plates were then placed in the automatic fluid aspirator/dispenser and rinsed/aspirated three times with room temperature WB (pH 7.4), and transport was initiated by aspirating this medium and replacing it with 60 µL of an NH4Cl-free medium containing labeled substrate, thereby, establishing a trans H^+ gradient, qualitatively similar to the conditions that support MATE1-mediated transport in renal proximal tubules. For all experiments, transport buffers were added using a VIAFLO 96-well multichannel pipet (Integra Biosciences, Hudson, NH, USA). At specified time intervals, transport was terminated by rinsing with three cycles of cold WB (300 µL). Following rinsing and final aspiration, 200 µL of scintillation cocktail (Microscint 20, Perkin-Elmer, Waltham, MA, USA) was added to each well. The plates were sealed (Topseal-A, Perkin Elmer), and after sitting for at least two hours, accumulated radioactivity was determined in a six-channel multiwell scintillation counter (Wallac Trilux 1450 Microbeta, Perkin-Elmer).
(§4) The method described here is a minor modification of that described by Pelis et al..

The next assay deals with T2, hOCT2 (Homo sapiens, UniProt O15244).
T2 construct: expressed in transfected cells; vector pcDNA5/FRT/V5-His TOPO
T2 sequence (O15244 1-555): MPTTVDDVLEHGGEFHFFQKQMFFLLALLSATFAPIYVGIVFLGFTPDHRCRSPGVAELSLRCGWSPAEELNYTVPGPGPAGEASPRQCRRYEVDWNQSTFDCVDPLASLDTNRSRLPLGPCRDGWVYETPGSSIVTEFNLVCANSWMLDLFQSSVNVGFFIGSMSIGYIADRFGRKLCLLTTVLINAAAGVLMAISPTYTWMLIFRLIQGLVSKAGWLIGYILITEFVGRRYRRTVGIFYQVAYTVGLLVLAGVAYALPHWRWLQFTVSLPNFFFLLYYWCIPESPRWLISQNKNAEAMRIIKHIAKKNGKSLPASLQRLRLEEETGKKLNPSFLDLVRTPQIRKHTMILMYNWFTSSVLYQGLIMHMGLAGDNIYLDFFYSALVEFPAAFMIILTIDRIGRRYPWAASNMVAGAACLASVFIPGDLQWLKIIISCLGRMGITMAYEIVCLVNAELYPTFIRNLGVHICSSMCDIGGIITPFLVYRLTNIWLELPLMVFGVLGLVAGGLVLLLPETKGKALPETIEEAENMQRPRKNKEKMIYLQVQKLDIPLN
The assay is described as follows: OCT2-mediated substrate uptake kinetics and turnover rate in stably expressing CHO cells. Format: in vitro ADME. Conditions: for Jmax (maximum rate of mediated substrate transport) / Kt (Ktapp, apparent Michaelis constant): CHO cells stably expressing OCT2, 60-s uptakes, pH 7.4, mean ± SD; for TOR (turnover rate): Jmax divided by cell surface OCT2 abundance (154 ± 70.7 fmol cm^−2), CHO cells. As to the method:
as §1, §2, §3, §4

Where “and” joins values, the source holds several entries; their conditions need not be identical. Equal values may be shown once.

Turning to `CC(C)NCC(O)COc1ccc(CC(N)=O)cc1` (stereo not drawn) [Atenolol, atenolol], the “Kt (Ktapp, apparent Michaelis constant)” value was 354 ± 96 µM and 354 ± 95.9 µM at hMATE1; 354 ± 96 µM on hMATE1 (listed as atenolol).
As for `C[n+]1ccc(-c2ccccc2)cc1` [MPP, 1-Methyl-4-phenylpyridinium], at hMATE1, the “Jmax (maximum rate of mediated substrate transport)” value (“Jmax” below) was 241 ± 85 pmol cm^−2 min^−1 and 241 ± 84.9 (n = 4) pmol cm^−2 min^−1; the “Kt (Ktapp, apparent Michaelis constant)” value was found to be 66 ± 6.8 µM; the “TOR (turnover rate)” value is 297 ± 201 s⁻¹. Further, at hOCT2, the “Jmax” value was 59 ± 6.6 pmol cm^−2 min^−1 and 58.5 ± 6.6 pmol cm^−2 min^−1 and 58 pmol cm^−2 min^−1 and 58.5 ± 6.6 (n = 3) pmol cm^−2 min^−1; the “Kt (Ktapp, apparent Michaelis constant)” value is reported as 17.5 ± 2.1 µM; the “TOR (turnover rate)” value was 7.1 ± 2.4 s⁻¹.
As to `CN(C)C(=N)N=C(N)N` [Metformin, metformin], the “Jmax” value is 1802 ± 1147 pmol cm^−2 min^−1 and 1802 ± 1147 (n = 4) pmol cm^−2 min^−1 on hMATE1; 1802 ± 1147 pmol cm^−2 min^−1 on hMATE1 (listed as metformin); 509 ± 39 pmol cm^−2 min^−1 and 509 ± 39.0 (n = 2) pmol cm^−2 min^−1 on hOCT2; 509 ± 39 pmol cm^−2 min^−1 and 509 pmol cm^−2 min^−1 at hOCT2 (listed as metformin). In addition, the “Kt (Ktapp, apparent Michaelis constant)” value at hMATE1 was 664 ± 302 µM; on hOCT2 it was 427 ± 48 µM and 427 ± 48.0 µM; at hOCT2 (listed as metformin), 427 ± 48 µM. In addition, the “TOR (turnover rate)” value at hMATE1 is 1894 ± 1282 s⁻¹; on hMATE1 (listed as metformin), ~ 1900 s^−1; at hOCT2, 70 s⁻¹.
